Source: the supplement of paper PMC5908809

Tests used:
[1] = tested on: normal NK cells expanded with K562-aAPC; assay: drug sensitivity score (DSS) (DSS units); higher = more sensitive; extreme values may be limits of the assay; conditions: 72 h; IL-2 2.5 ng/mL
Protocol: (§1)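 Drug sensitivity and resistance testing on K562-aAPC-expanded normal NK cells: 5 concentrations (10-fold steps over a 10,000-fold range), 72 h at 37 °C, viability by CellTiter-Glo normalised to DMSO and benzethonium chloride controls; DSS from the fitted curve.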

[2] = tested on: normal NK cells expanded with K562-aAPC; assay: percent inhibition of viability; higher = more inhibition; conditions: 72 h, IL-2 2.5 ng/mL
Protocol: as §1

SNK-6 (IL-2 2.5 ng/mL) [3] = assay: as above; conditions: 72 h
NK-YS (IL-2 2.5 ng/mL) [4] = assay: as above; conditions: 72 h
NK-92 (IL-2 2.5 ng/mL) [5] = assay: as above; conditions: 72 h
KHYG-1 (IL-2 2.5 ng/mL) [6] = assay: as above; conditions: 72 h
[7] = tested on: normal primary NK cells, pool 1 (3 donors) (IL-2 2.5 ng/mL); assay: as above; conditions: 72 h
[8] = tested on: normal primary NK cells, pool 3 (3 donors) (IL-2 2.5 ng/mL); assay: as above; conditions: 72 h
[9] = tested on: normal primary NK cells, pool 1 (3 donors), resting (IL-2 0 ng/mL); assay: as above; conditions: 72 h
KAI3 (IL-2 2.5 ng/mL) [10] = assay: as above; conditions: 72 h
[11] = tested on: normal primary NK cells, pool 2 (3 donors) (IL-2 2.5 ng/mL); assay: as above; conditions: 72 h
DERL-7 (IL-2 2.5 ng/mL) [12] = assay: as above; conditions: 72 h
IMC-1 (IL-2 20 ng/mL) [13] = assay: as above; conditions: 72 h
NKL (IL-2 2.5 ng/mL) [14] = assay: as above; conditions: 72 h
YT (IL-2 2.5 ng/mL) [15] = assay: as above; conditions: 72 h
SNK-6 (IL-2 2.5 ng/mL) [16] = assay: drug sensitivity score (DSS) (DSS units); higher = more sensitive; extreme values may be limits of the assay; conditions: 72 h
NK-YS (IL-2 2.5 ng/mL) [17] = assay: as above; conditions: 72 h
NK-92 (IL-2 2.5 ng/mL) [18] = assay: as above; conditions: 72 h
KHYG-1 (IL-2 2.5 ng/mL) [19] = assay: as above; conditions: 72 h
[20] = tested on: normal primary NK cells, pool 1 (3 donors) (IL-2 2.5 ng/mL); assay: as above; conditions: 72 h
[21] = tested on: normal primary NK cells, pool 3 (3 donors) (IL-2 2.5 ng/mL); assay: as above; conditions: 72 h
[22] = tested on: normal primary NK cells, pool 1 (3 donors), resting (IL-2 0 ng/mL); assay: as above; conditions: 72 h
KAI3 (IL-2 2.5 ng/mL) [23] = assay: as above; conditions: 72 h
[24] = tested on: normal primary NK cells, pool 2 (3 donors) (IL-2 2.5 ng/mL); assay: as above; conditions: 72 h
DERL-7 (IL-2 2.5 ng/mL) [25] = assay: as above; conditions: 72 h
IMC-1 (IL-2 20 ng/mL) [26] = assay: as above; conditions: 72 h
NKL (IL-2 2.5 ng/mL) [27] = assay: as above; conditions: 72 h
YT (IL-2 2.5 ng/mL) [28] = assay: as above; conditions: 72 h

CCOc1cc2ncc(C#N)c(Nc3ccc(OCc4ccccn4)c(Cl)c3)c2cc1NC(=O)/C=C/CN(C)C [Neratinib] (max concentration tested 1000 nM)
Conditions	drug sensitivity score
DERL-7 (IL-2 2.5 ng/mL) [25]	5.21
IMC-1 (IL-2 20 ng/mL) [26]	0
KAI3 (IL-2 2.5 ng/mL) [23]	2.59
KHYG-1 (IL-2 2.5 ng/mL) [19]	1.72
NK-92 (IL-2 2.5 ng/mL) [18]	4.28
NK-YS (IL-2 2.5 ng/mL) [17]	0.13
NKL (IL-2 2.5 ng/mL) [27]	3.24
SNK-6 (IL-2 2.5 ng/mL) [16]	0
YT (IL-2 2.5 ng/mL) [28]	0
[1]	4.02
[20]	1.29
[21]	0.26
[22]	3.36
[24]	1.38

percent inhibition of viability [%]
Conditions	0.1 nM	1 nM	10 nM	100 nM	1000 nM
DERL-7 (IL-2 2.5 ng/mL) [12]	-7.68	3.12	6.29	8.45	68.9
IMC-1 (IL-2 20 ng/mL) [13]	-2.69	-1.05	1.8	4.28	1.07
KAI3 (IL-2 2.5 ng/mL) [10]	-4.25	-5.47	-6.36	0.65	48.1
KHYG-1 (IL-2 2.5 ng/mL) [6]	4.6	-0.87	25.1	2.37	22
NK-92 (IL-2 2.5 ng/mL) [5]	3.19	-13.2	7.23	7.67	55.4
NK-YS (IL-2 2.5 ng/mL) [4]	-2.05	-4.96	-1.85	-5.03	15.2
NKL (IL-2 2.5 ng/mL) [14]	-1.48	12.9	8.45	12.5	40.4
SNK-6 (IL-2 2.5 ng/mL) [3]	11	16.1	38.2	6.35	35.7
YT (IL-2 2.5 ng/mL) [15]	1.33	4.12	5.46	1.01	10.2
[2]	-2.53	0.83	-1.65	8.19	50
[7]	-6.45	-7.28	-6.63	-9.14	36.2
[8]	-13.9	-5.37	-1.66	-10.9	18.9
[9]	-2.47	-22.5	-7.51	-6.96	70.1
[11]	-8.13	-2.28	2.22	-1.98	33.3

Cc1c2oc3c(C)ccc(C(=O)N[C@@H]4C(=O)N[C@H](C(C)C)C(=O)N5CCC[C@H]5C(=O)N(C)CC(=O)N(C)[C@@H](C(C)C)C(=O)O[C@@H]4C)c3nc-2c(C(=O)N[C@@H]2C(=O)N[C@H](C(C)C)C(=O)N3CCC[C@H]3C(=O)N(C)CC(=O)N(C)[C@@H](C(C)C)C(=O)O[C@@H]2C)c(N)c1=O [Dactinomycin] (max concentration tested 1000 nM)
Conditions	drug sensitivity score
DERL-7 (IL-2 2.5 ng/mL) [25]	33.6
IMC-1 (IL-2 20 ng/mL) [26]	23.2
KAI3 (IL-2 2.5 ng/mL) [23]	26.6
KHYG-1 (IL-2 2.5 ng/mL) [19]	30.4
NK-92 (IL-2 2.5 ng/mL) [18]	18.8
NK-YS (IL-2 2.5 ng/mL) [17]	39.5
NKL (IL-2 2.5 ng/mL) [27]	38.8
SNK-6 (IL-2 2.5 ng/mL) [16]	38.1
YT (IL-2 2.5 ng/mL) [28]	36.5
[1]	22.2
[20]	22
[21]	22.5
[22]	25.8
[24]	25.3

percent inhibition of viability [%]
Conditions	0.1 nM	1 nM	10 nM	100 nM	1000 nM
DERL-7 (IL-2 2.5 ng/mL) [12]	-0.87	44.9	83	101	101
IMC-1 (IL-2 20 ng/mL) [13]	-6.77	-14.7	38.1	100	101
KAI3 (IL-2 2.5 ng/mL) [10]	-6.19	34.4	52.9	103	107
KHYG-1 (IL-2 2.5 ng/mL) [6]	-3.25	36.4	71	106	108
NK-92 (IL-2 2.5 ng/mL) [5]	-12.8	-6.87	22	87.4	105
NK-YS (IL-2 2.5 ng/mL) [4]	5.62	72.3	94.4	106	107
NKL (IL-2 2.5 ng/mL) [14]	-4.78	72.4	84.8	108	110
SNK-6 (IL-2 2.5 ng/mL) [3]	33.9	71.2	81.7	99.6	78.6
YT (IL-2 2.5 ng/mL) [15]	0.56	51	97.4	107	108
[2]	1.4	5.24	28.6	101	101
[7]	5.89	7.37	35.9	98.4	98.6
[8]	-10.8	5.15	39.6	98.5	99.8
[9]	-15.9	13.6	67.8	91.7	90.8
[11]	-13.2	8.51	64.2	94.5	95.7
